Results reported in PubChem BioAssay (NCI).
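In this assay, cells in 96-well plates receive the compound at five concentrations for 48 hours. Endpoints are linearly interpolated between the surrounding concentrations. At the TGI there is no net growth.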

Legend:
Experiment in all cases: NCI tumour cell line growth inhibition, 48 h
NCI/ADR-RES ovarian = tested on: NCI/ADR-RES ovarian
T-47D breast = tested on: T-47D breast
CCRF-CEM leukemia = tested on: CCRF-CEM leukemia
OVCAR-8 ovarian = tested on: OVCAR-8 ovarian
SK-MEL-2 melanoma = tested on: SK-MEL-2 melanoma
KM12 colon = tested on: KM12 colon
SW-620 colon = tested on: SW-620 colon
SN12C renal = tested on: SN12C renal
SF-539 CNS = tested on: SF-539 CNS
MDA-N = tested on: MDA-N
CAKI-1 renal = tested on: CAKI-1 renal
MCF7 breast = tested on: MCF7 breast
MOLT-4 leukemia = tested on: MOLT-4 leukemia
NCI-H23 lung = tested on: NCI-H23 lung
NCI-H460 lung = tested on: NCI-H460 lung
SF-268 CNS = tested on: SF-268 CNS
RXF 393 renal = tested on: RXF 393 renal
TK-10 renal = tested on: TK-10 renal
HT29 colon = tested on: HT29 colon
HS 578T breast = tested on: HS 578T breast

Row | SMILES | TGI (NCI/ADR-RES ovarian) | TGI (T-47D breast) | TGI (CCRF-CEM leukemia) | TGI (OVCAR-8 ovarian) | TGI (SK-MEL-2 melanoma) | TGI (KM12 colon) | TGI (SW-620 colon) | TGI (SN12C renal) | TGI (SF-539 CNS) | TGI (MDA-N) | TGI (CAKI-1 renal) | TGI (MCF7 breast) | TGI (MOLT-4 leukemia) | TGI (NCI-H23 lung) | TGI (NCI-H460 lung) | TGI (SF-268 CNS) | TGI (RXF 393 renal) | TGI (TK-10 renal) | TGI (HT29 colon) | TGI (HS 578T breast)
1 | N#C/C(C(=O)Nc1ccccc1)=C(/N)N1CCOCC1 | > 100 µM | > 100 µM | > 100 µM | > 100 µM | > 100 µM | > 100 µM | > 100 µM | > 100 µM | > 100 µM | > 100 µM | > 100 µM | > 100 µM | > 100 µM | > 100 µM | > 100 µM |  |  |  |  | 
2 | Cc1cc2nc3c(C#N)c(-c4ccccc4)cc(Nc4ccc(Cl)cc4)n3c2cc1C | > 100 µM | > 100 µM | > 100 µM | > 100 µM | > 100 µM | > 100 µM | > 100 µM | > 100 µM | > 100 µM | > 100 µM | > 100 µM | > 100 µM |  | > 100 µM | > 100 µM | > 100 µM | > 100 µM | > 100 µM |  | 
3 | CS(=O)(=O)Nc1ccc(N2Cc3cnc4ccc5[nH]ccc2c5c34)cc1 | > 100 µM | 20.5 µM | > 100 µM | 62.5 µM | 31.7 µM | > 100 µM | > 100 µM | 35 µM |  | 29.3 µM | > 100 µM | > 100 µM | 8.94 µM | 76.9 µM | 46.2 µM |  |  | 89.1 µM | 95.7 µM | > 100 µM
4 | Cc1ccc(/C=N/n2c(=O)[nH]c3ccccc3c2=O)cc1 |  | > 100 µM | > 100 µM |  | > 100 µM | > 100 µM | > 100 µM | > 100 µM | > 100 µM | > 100 µM | > 100 µM | > 100 µM | > 100 µM | > 100 µM | > 100 µM | > 100 µM |  | > 100 µM | > 100 µM | > 100 µM
5 | CCOC(=O)C1=C(C)N(C)C23OC4(C(=O)OC)CC2c2ccccc2C1N3C4=O (configuration not stated) | > 100 µM | > 100 µM | > 100 µM | > 100 µM | > 100 µM | > 100 µM | > 100 µM | > 100 µM | > 100 µM | > 100 µM | > 100 µM | > 100 µM | > 100 µM | > 100 µM | > 100 µM | > 100 µM |  | > 100 µM | > 100 µM | 
6 | Nc1nc(Cl)c(N)c(NC23CC4CC(CC(C4)C2)C3)n1 |  | 3.61 µM | 5 µM | 6.59 µM | 1.16 µM | 3.67 µM | 2.94 µM | 3.32 µM | 3.72 µM | 3.31 µM | 3.84 µM | 3.78 µM | 4.81 µM | 8.43 µM | 17.7 µM | > 20.5 µM | 3.24 µM | 5.54 µM | 3.42 µM | > 100 µM
7 | COc1cc(/C=C2\CCC(C)C3C2=NN(C(C)=O)C3c2cc(OC)c(OC)c(OC)c2)cc(OC)c1OC (configuration not stated) |  | 67.8 µM | > 100 µM | > 100 µM | > 42.4 µM | > 100 µM | > 100 µM | > 100 µM | > 100 µM | > 100 µM | > 100 µM | > 100 µM | > 100 µM | > 100 µM | > 100 µM | > 100 µM | > 100 µM | > 100 µM | > 100 µM | > 92.2 µM
8 | C[C@@H]1C[C@H]2[C@@H]3CCC4=CC(=O)C=C[C@]4(C)[C@@]3(Cl)[C@@H](Cl)C[C@]2(C)[C@@]1(O)C(=O)COP(=O)(O)O |  | > 100 µM |  | > 100 µM | > 100 µM | > 100 µM | > 100 µM | 33.1 µM |  | > 100 µM | > 100 µM | > 100 µM | > 100 µM | > 100 µM |  | > 100 µM | > 100 µM | > 100 µM | > 100 µM | > 100 µM
9 | O=C(O)/C=N\Nc1nc2ccccc2[nH]1 | > 100 µM | > 100 µM | > 100 µM | > 100 µM | > 100 µM | > 100 µM | > 100 µM | > 100 µM | > 100 µM | > 100 µM | > 100 µM | > 100 µM | > 100 µM | > 100 µM | > 100 µM | > 100 µM |  | > 100 µM | > 100 µM | > 100 µM
10 | CCC(C)(C)/C(CC(O)(C(F)(F)F)C(F)(F)F)=N\O | > 100 µM | > 100 µM | > 100 µM |  | > 100 µM | > 100 µM | > 100 µM | > 100 µM | > 100 µM | > 100 µM | > 100 µM |  | > 100 µM | > 100 µM | > 100 µM | > 100 µM | > 100 µM | > 100 µM | > 100 µM | > 100 µM
11 | CC(=O)OCCn1cnc2nc(Nc3ccccc3)nc(Cl)c21 | > 100 µM | > 100 µM | > 100 µM | > 100 µM |  | > 100 µM | > 100 µM | > 100 µM | > 100 µM | > 100 µM |  | > 100 µM | > 100 µM | > 100 µM | > 100 µM | > 100 µM |  | > 100 µM | > 100 µM | > 100 µM
